Series [1] deals with ALS (acetolactate syntase) from barnyardgrass seedlings. In words: ALS (acetolactate syntase) inhibition test, barnyardgrass enzyme. Particulars: 10,000 ppm (0.5 μg/0.5 ml) of compound; 1 hour at 30° C.; absorbance at 525 nm. Type of series: biochemical. Here is the method:
(§1) To determine the selectivity in enzyme level between crops and weeds, an ALS inhibition test was conducted using pea as a typical broadleaf crop and barnyardgrass as a representative gramineous weeds.
(§2) After seeds of pea and barnyardgrass were allowed to germinate at 25° C. for 8-14 days in a dark place, partially-purified suspensions (Suspensions A) of acetolactate syntase were separately obtained from the seedlings in accordance with the procedures described in the literature, Plant Physiology, 75, 827-831. In a test tube, 0.5 mg of one of test compounds was weighed, followed by the addition of 0.15 ml of a 20 mM K2 HPO4 solution and 0.25 ml of a reaction substrate medium which consisted of 40 mM of K2 HPO4, 40 mM of sodium pyruvate, 1 mM of TPP, 1 mM of MgCl2 and 20 μM of FAD so that 0.4 ml of a reaction solution (Solution B) was prepared. Added to 0.4 ml of Solution B was 0.1 ml of Suspension A. After the resultant mixture was shaken for 1 hour in a thermostat water bath controlled at 30° C., 50 μl of 6N sulfuric acid were added to terminate the reaction.
(§3) Next, the test tube with the reaction-terminated liquid mixture contained therein was transferred into a thermostat water bath controlled at 60° C. and was heated for 15 minutes. Thereafter, 0.5 ml of a 0.5% creatine solution and 0.5 ml of a 5% alkaline α-naphthol solution were added, and the resultant mixture was maintained at 60° C. for 15 minutes. As a result, the test solution developed a pink-to-red color. After the above operation, the absorbance of the test solution at 525 nm was measured by a spectrophotometer (Absorbance 1 of Test Compound).
(§4) Further, the absorbance (Absorbance 2 of Blank) of a solution obtained by subjecting a portion of Solution B to the above procedures without addition of any test compound and the absorbance (Absorbance 3 of sulfuric acid) of another solution obtained by subjecting another portion of Solution B to the above procedures which using 50 μl of 6N sulfuric acid as a test compound were also measured.

The subject of series [2] is ALS (acetolactate syntase) from pea seedlings. Kind of series: ALS (acetolactate syntase) inhibition test, pea enzyme. Type of series: biochemical. Particulars: 10,000 ppm (0.5 μg/0.5 ml) of compound; 1 hour at 30° C.; absorbance at 525 nm. The protocol:
as §1, §2, §3, §4

Series [3] concerns Amaranth (Amaranthus viridis). Kind of series: Upland soil application test, amaranth. Type of series: in vivo. Particulars: 1200 h, soil application one day after seeding, 50 g ai/a, wettable powder, fresh weight on 50th day after spray, read-out: Herbicidal effects Amaranth (Amaranthus viridis). The protocol: (§5) Resin-made 1/1000-are pots were filled with the soil of an upland field. After they were fertilized, cotton and soybean were seeded and 3 cm soil covering was applied. In addition, amaranth, common lambs-quarters, barnyardgrass, green foxtail, large crabgrass and johnsongrass were seeded and 1 cm soil covering was applied. One day later, a wettable powder prepared from a predetermined amount of each test compound in a similar manner to the procedures described in Formulation Example 1 was diluted with water and then sprayed evenly at an application rate equal to 10 l per are onto the surface of the soil by means of a pressure-operated sprayer. The weeds and crops were allowed to grow in a green house and influence to them were observed on the 50th day after the spray. The degree of damages of each test plant and the degree of injury to each crop were determined by measuring fresh weight in each group and indicated by % calculated according to the following formula. [formula]

Series [4] concerns common lambsquarters. In words: Upland soil application test, common lambsquarters. Type of series: in vivo. Particulars: Chenopodium album, 1200 h; soil application one day after seeding, 50 g ai/a, wettable powder, fresh weight on 50th day after spray; read-out: Herbicidal effects Common lambquarters. Here is the method:
as §5

For series [5], the system named is Barnyardgrass (Echinochloa crusgalli). In words: Upland soil application test, barnyardgrass. Type of series: in vivo. Particulars: Echinochloa crus-galli, 1200 h; soil application one day after seeding, 50 g ai/a, wettable powder, fresh weight on 50th day after spray; read-out: Herbicidal effects Barnyardgrass (Echinochloa crusgalli). Here is the method: as §5
In series [6] the test system is Foxtail (Setaria viridis). Kind of series: Upland soil application test, green foxtail. Type of series: in vivo. Particulars: 1200 h, soil application one day after seeding, 50 g ai/a, wettable powder, fresh weight on 50th day after spray, read-out: Herbicidal effects Foxtail (Setaria viridis). The protocol:
as §5

Series [7] relates to Crabgrass (Digitaria adscendens). In words: Upland soil application test, large crabgrass. Type of series: in vivo. Particulars: 1200 h, soil application one day after seeding, 50 g ai/a, wettable powder, fresh weight on 50th day after spray, read-out: Herbicidal effects Crabgrass (Digitaria adscendens). The protocol:
as §5

The test system of series [8] is Johnsongrass. Kind of series: Upland soil application test, johnsongrass. Particulars: Sorghum halepense, 1200 h; soil application one day after seeding, 50 g ai/a, wettable powder, fresh weight on 50th day after spray; read-out: Herbicidal effects Johnsongrass. Type of series: in vivo. Here is the method:
as §5

Series [9] relates to Soybean (Glycine max). In words: Upland soil application test, crop injury soybean. Type of series: in vivo. Particulars: soil application one day after seeding, 50 g ai/a, wettable powder, fresh weight on 50th day after spray. Here is the method: as §5
In series [10] the test system is Cotton (Gossypium indicum). Kind of series: Upland soil application test, crop injury cotton. Type of series: in vivo. Particulars: soil application one day after seeding, 50 g ai/a, wettable powder, fresh weight on 50th day after spray. Here is the method: as §5
Series [11] relates to Amaranth (Amaranthus viridis). In words: Upland foliar application test, amaranth. Type of series: in vivo. Particulars: 960 h, foliar application at stage of 2-3 leaves, 50 g ai/a, emulsion, 40th day after spray, read-out: Herbicidal effects Amaranth (Amaranthus viridis). The protocol: as §5
(§6) Resin-made 1/1000-are pots were filled with the soil of an upland field. After they were fertilized, cotton and soybean were seeded and 3 cm soil covering was applied. Five days later, amaranth, common lambsquarters, barnyardgrass, green foxtail, large crabgrass and johnsongrass were seeded and 1 cm soil covering was applied. They were allowed to grow in a green house. When each plant grew to the stage of 2-3 leaves, an emulsion formulated from a predetermined amount of each test compound in a similar manner to the procedures described in Formulation Example 11 was diluted with water and then sprayed at a predetermined application rate by means of a pressure-operated sprayer. The application rate was controlled at 5 l per are. Influence to the crops and weeds were observed on the 40th day after the spray of the herbicides. The results are shown in Table 4 in which the degree of damages of each test plant and the degree of injury to each crop are shown in a similar manner to Test 2.

For series [12], the system named is common lambsquarters. In words: Upland foliar application test, common lambsquarters. Type of series: in vivo. Particulars: Chenopodium album, 960 h; foliar application at stage of 2-3 leaves, 50 g ai/a, emulsion, 40th day after spray; read-out: Herbicidal effects Common lambquarters. The protocol:
as §6

The test system of series [13] is Barnyardgrass (Echinochloa crusgalli). In words: Upland foliar application test, barnyardgrass. Type of series: in vivo. Particulars: Echinochloa crus-galli, 960 h; foliar application at stage of 2-3 leaves, 50 g ai/a, emulsion, 40th day after spray; read-out: Herbicidal effects Barnyardgrass (Echinochloa crusgalli). Here is the method: as §6
Series [14] deals with Foxtail (Setaria viridis). In words: Upland foliar application test, green foxtail. Type of series: in vivo. Particulars: 960 h, foliar application at stage of 2-3 leaves, 50 g ai/a, emulsion, 40th day after spray, read-out: Herbicidal effects Foxtail (Setaria viridis). The protocol: as §5, §6
Series [15] concerns Crabgrass (Digitaria adscendens). Kind of series: Upland foliar application test, large crabgrass. Particulars: 960 h, foliar application at stage of 2-3 leaves, 50 g ai/a, emulsion, 40th day after spray, read-out: Herbicidal effects Crabgrass (Digitaria adscendens). Type of series: in vivo. Here is the method: as §5, §6
Series [16] deals with Johnsongrass. Kind of series: Upland foliar application test, johnsongrass. Type of series: in vivo. Particulars: Sorghum halepense, 960 h; foliar application at stage of 2-3 leaves, 50 g ai/a, emulsion, 40th day after spray; read-out: Herbicidal effects Johnsongrass. The protocol:
as §6

Series [17] has as its system Soybean (Glycine max). Kind of series: Upland foliar application test, crop injury soybean. Type of series: in vivo. Particulars: foliar application at stage of 2-3 leaves, 50 g ai/a, emulsion, 40th day after spray. The protocol:
as §6

Series [18] deals with Cotton (Gossypium indicum). Kind of series: Upland foliar application test, crop injury cotton. Type of series: in vivo. Particulars: foliar application at stage of 2-3 leaves, 50 g ai/a, emulsion, 40th day after spray. The protocol:
as §5, §6

For series [19], the system named is johnsongrass emerging from rhizome. In words: Application test on johnsongrass emerging from rhizome. Particulars: foliar application at stage of 4-5 leaves, application rate of active ingredient 20 (unit not given), emulsion, 50th day after spray. Type of series: in vivo. The protocol:
as §5
Resin-made 1/1000-are pots were filled with the soil of an upland field. After they were fertilized, rhizome of johnsongrass were transplanted to the pots and 3 cm soil covering was applied. They were allowed to grow in a green house. When each johnsongrass grew to the stage of 4-5 leaves, an emulsion formulated from a predetermined amount of each test compound in a similar manner to the procedures described in Formulation Example 11 was diluted with water and then sprayed at a predetermined application rate by means of a pressure-operated sprayer. The application rate was controlled at 5 l per are. The effect of each compound against the johnsongrass emerging from its rhizome was observed on the 50th day after the spray of the herbicides. The results are shown in Table 5 in which the herbicidal effect against johnsongrass is shown in a similar manner to Test 2.

For `CCCCCCOC(OCCCCCC)c1ccccc1Oc1nc(OC)cc(OC)n1` [Compound No. 5, 2-(4,6-dimethoxypyrimidin-2-yloxy)benzaldehyde di-n-hexylacetal], the “Enzymoreaction inhibition rate (%) Barnyardgrass” value in series [1] turned out to be 100%. Besides, the “Enzymoreaction inhibition rate (%) Pea” value in [2] amounted to 0%. Also, the pest or weed control at 5000 g/ha (in [3]; with common lambsquarters [4]; in [5]; in series [6]; in [7]; in the series with Johnsongrass [8]) was 100% throughout. The pest or weed control at 5000 g/ha (in series [11]; in the series with common lambsquarters [12]; in [13]; in series [14]; in series [15]; in the series on Johnsongrass [16]) was 100% in each case. For the same molecule, the “Crop injury Soybean (Glycine max)” value with Soybean (Glycine max) [9] and in the series with Soybean (Glycine max) [17] was 0% throughout. Besides, the “Crop injury Cotton (Gossypium indicum)” value in series [10] and in series [18] was 0% each time. Further, in [19], the “Herbicidal effect against johnsongrass emerging from rhizome” value (shortened to “Herbicidal effect”) is 100%.

For the molecule `CCCOC(OCCC)c1ccccc1Oc1nc(OC)cc(OC)n1` [Compound No. 1], the “Enzymoreaction inhibition rate (%) Barnyardgrass” value in series [1] was 100%. In series [2], the “Enzymoreaction inhibition rate (%) Pea” value came to 0%. Besides, the pest or weed control at 5000 g/ha (in series [3]; in the series on common lambsquarters [4]; in series [5]; in series [6]; in series [7]; with Johnsongrass [8]) was 100% each time. Moreover, the pest or weed control at 5000 g/ha (in series [11]; with common lambsquarters [12]; in series [13]; in series [14]; in series [15]; in the series on Johnsongrass [16]) was 100% in each case. Also, the “Crop injury Soybean (Glycine max)” value in the series on Soybean (Glycine max) [9] and with Soybean (Glycine max) [17] was 0% in each case. In addition, the “Crop injury Cotton (Gossypium indicum)” value in [10] and in series [18] was 0% each time. The “Herbicidal effect” value in series [19] is on record as 100%.

For `CCCCCCCCOC(OCCCCCCCC)c1ccccc1Oc1nc(OC)cc(OC)n1` [Compound No. 7, 2-(4,6-dimethoxypyrimidin-2-yloxy)benzaldehyde di-n-octylacetal], the “Enzymoreaction inhibition rate (%) Barnyardgrass” value in [1] stood at 100%. Also, in series [2], the “Enzymoreaction inhibition rate (%) Pea” value came out at 0%. For the same molecule, the pest or weed control at 5000 g/ha in series [3] is 80%; in the series with common lambsquarters [4], 85%; in series [5], 85%; in [6], 90%; in series [7], 80%; with Johnsongrass [8], 100%. Also, the pest or weed control at 5000 g/ha in series [11] stood at 90%; with common lambsquarters [12], 85%; in series [13], 95%; in series [14] it was 90%; in [15], 90%; in the series on Johnsongrass [16], 100%. Also, the “Crop injury Soybean (Glycine max)” value with Soybean (Glycine max) [9] and in the series on Soybean (Glycine max) [17] was 0% each time. Also, the “Crop injury Cotton (Gossypium indicum)” value in series [10] and in series [18] was 0% in each case. In series [19], the “Herbicidal effect” value is 80%.

For the molecule `COC(=O)c1ccccc1Oc1nc(OC)cc(OC)n1` [Comp. Comp'd A, reference compound], the “Enzymoreaction inhibition rate (%) Barnyardgrass” value in series [1] is on record as 73%. Also, the “Enzymoreaction inhibition rate (%) Pea” value in [2] turned out to be 72%. Moreover, the pest or weed control at 5000 g/ha (in series [3]; in the series with common lambsquarters [4]; in [5]; in [6]; in series [7]; in the series on Johnsongrass [8]) was 100% in each case. Moreover, the pest or weed control at 5000 g/ha (in series [11]; in the series on common lambsquarters [12]; in series [13]; in [14]; in series [15]; with Johnsongrass [16]) was 100% in each case. In addition, the “Crop injury Soybean (Glycine max)” value in the series on Soybean (Glycine max) [9] and with Soybean (Glycine max) [17] was 100% throughout. Also, the “Crop injury Cotton (Gossypium indicum)” value in series [10] and in series [18] was 100% each time. The “Herbicidal effect” value in series [19] is reported as 60%.
